From US20190105367A1, “ANTIMICROBIAL 4-OXOQUINOLIZINES” (Emergent Product Development Gaithersburg Inc., priority 2011, published 2019)
≈ marks a conversion by molar mass, not a printed value. Where two headings read alike, the source gives them in different places.

Columns and labels:
[1] = test system: strains of A. baumannii and one strain of Acinetobacter sp.; experiment: MIC with sub-inhibitory concentrations (0.25x MIC) of polymyxin B, panel of Acinetobacter strains (Example 4); assay type: cell-based
[2] = test system: A. baumannii ATCC 19606; experiment: MIC without and with sub-inhibitory polymyxin B (Example 4); assay type: cell-based, Acinetobacter baumannii; conditions: for MIC without PB/MIC + PB: A. baumannii ATCC 19606; for MIC: Acinetobacter baumannii
[3] = test system: A. baumannii ATCC 19606; experiment: Preliminary MBC without and with sub-inhibitory polymyxin B (Example 4); assay type: cell-based, Acinetobacter baumannii; conditions: Acinetobacter baumannii
[4] = test system: A. baumannii J2; experiment: MIC without and with sub-inhibitory polymyxin B (Example 4); assay type: cell-based, Acinetobacter baumannii; conditions: for MIC without PB/MIC + PB: A. baumannii J2; for MIC: Acinetobacter baumannii
[5] = test system: A. baumannii J2; experiment: Preliminary MBC without and with sub-inhibitory polymyxin B (Example 4); assay type: cell-based, Acinetobacter baumannii; conditions: Acinetobacter baumannii, preliminary MBC
[6] = test system: Acinetobacter sp. (H064200250); experiment: MIC without and with sub-inhibitory polymyxin B (Example 4); assay type: cell-based; conditions: for MIC: Acinetobacter
[7] = test system: Acinetobacter sp. (H064200250); experiment: Preliminary MBC without and with sub-inhibitory polymyxin B (Example 4); assay type: cell-based; conditions: Acinetobacter, preliminary MBC
Method in brief: (§1)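 After plating, cultures are held at 37° C for 18-20 hours; the endpoint is then scored by comparing colony growth against the positive control, with MBC defined as the lowest concentration showing roughly 90% reduction.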

[8] = test system: A. baumannii A329; experiment: MIC without and with sub-inhibitory polymyxin B (Example 4); assay type: cell-based, Acinetobacter baumannii; conditions: +0.06 μg/ml PB, 2nd experiment
[9] = test system: A. baumannii A329; experiment: Preliminary MBC without and with sub-inhibitory polymyxin B (Example 4); assay type: cell-based, Acinetobacter baumannii; conditions: Acinetobacter baumannii, A329, A. baumannii A329, +0.06 μg/ml PB, 2nd experiment, read-out: MBC
[10] = test system: A. baumannii A387; experiment: MIC without and with sub-inhibitory polymyxin B (Example 4); assay type: cell-based, Acinetobacter baumannii; conditions: for MIC without PB/MIC + PB: A. baumannii A387; for MIC: Acinetobacter baumannii
[11] = test system: A. baumannii A387; experiment: Preliminary MBC without and with sub-inhibitory polymyxin B (Example 4); assay type: cell-based, Acinetobacter baumannii; conditions: Acinetobacter baumannii
[12] = test system: A. baumannii A14; experiment: as above; assay type: cell-based, Acinetobacter baumannii; conditions: 2nd experiment
Method in brief: as §1

[13] = test system: A. baumannii A390; experiment: as above; assay type: cell-based, Acinetobacter baumannii; conditions: Acinetobacter baumannii, A390, A. baumannii A390, +0.06 μg/ml PB, 2nd experiment, read-out: MBC
Method in brief: as §1

[14] = test system: A. baumannii A473; experiment: as above; assay type: cell-based, Acinetobacter baumannii; conditions: Acinetobacter baumannii, A473, A. baumannii A473, +0.06 μg/ml PB, 2nd experiment, read-out: MBC
Method in brief: as §1

[15] = test system: A. baumannii NCTC 13301; experiment: as above; assay type: cell-based, Acinetobacter baumannii; conditions: Acinetobacter baumannii
Method in brief: as §1

[16] = test system: A. baumannii A401; experiment: MIC without and with sub-inhibitory polymyxin B (Example 4); assay type: cell-based, Acinetobacter baumannii
[17] = test system: A. baumannii A401; experiment: Preliminary MBC without and with sub-inhibitory polymyxin B (Example 4); assay type: cell-based, Acinetobacter baumannii; conditions: Acinetobacter baumannii
[18] = test system: A. baumannii A473; experiment: MIC without and with sub-inhibitory polymyxin B (Example 4); assay type: cell-based, Acinetobacter baumannii; conditions: +0.06 μg/ml PB, 2nd experiment
[19] = test system: A. baumannii A489; experiment: as above; assay type: cell-based, Acinetobacter baumannii; conditions: for MIC without PB/MIC + PB: A. baumannii A489; for MIC: Acinetobacter baumannii
[20] = test system: A. baumannii A489; experiment: Preliminary MBC without and with sub-inhibitory polymyxin B (Example 4); assay type: cell-based, Acinetobacter baumannii; conditions: Acinetobacter baumannii, preliminary MBC
[21] = test system: A. baumannii NCTC 13301; experiment: MIC without and with sub-inhibitory polymyxin B (Example 4); assay type: cell-based, Acinetobacter baumannii
[22] = test system: A. baumannii NCTC 13301; experiment: as above; assay type: cell-based, Acinetobacter baumannii; conditions: +[…] PB, 2nd experiment
[23] = test system: A. baumannii A14; experiment: as above; assay type: cell-based, Acinetobacter baumannii; conditions: 1st experiment
[24] = test system: A. baumannii A14; experiment: Preliminary MBC without and with sub-inhibitory polymyxin B (Example 4); assay type: cell-based, Acinetobacter baumannii; conditions: Acinetobacter baumannii
[25] = ratio, PB 0.06 μg/ml, 1st experiment

Cc1c(-c2ccc(N)cc2)c(F)cn2c(=O)c(C(=O)O)cc(C3CC3)c12 [Compound 7, 8-(4-amino-phenyl)-1-cyclopropyl-7-fluoro-9-methyl-4-oxo-quinolizine-3-carboxylic acid]
MIC range with PB (0.25x MIC) Oct. 1, 2008 n = 8 ([1]; 1st experiment, […] polymyxin B, ATCC 19606, A329, A390 and A473 not taken): ≤0.03 to 1 µg/mL
MIC range with PB (0.25x MIC) Oct. 14, 2008 n = 11 ([1]; 2nd experiment, 0.06 μg/ml polymyxin B, all strains except the ATCC strain): ≤0.03 to 2 µg/mL
MIC without PB/MIC + PB ([2]; +0.06 μg/ml PB, 2nd experiment): ≥8
MIC without PB/MIC + PB [2, 25]: ≥16
MIC ([2]; ATCC19606, A. baumannii ATCC 19606, +0.06 μg/ml PB, 2nd experiment, read-out: MIC): ≤ 0.03 µg/mL
MIC ([2]; ATCC19606, read-out: MIC +0.06 μg/ml PB, A. baumannii ATCC 19606, +0.06 μg/ml polymyxin B, 1st experiment): ≤ 0.03 µg/mL
MBC ([3]; ATCC19606, A. baumannii ATCC 19606, +0.06 μg/ml PB, 2nd experiment, read-out: MBC): ≤ 0.03 µg/mL
MBC ([3]; ATCC19606, read-out: MBC +0.06 μg/ml PB, A. baumannii ATCC 19606, +0.06 μg/ml polymyxin B, 1st experiment): ≤ 0.03 µg/mL
MIC without PB/MIC + PB ([4]; +[…] PB, 2nd experiment): ≥128
MIC without PB/MIC + PB ([4]; ratio, PB […], 1st experiment): ≥512
MIC ([4]; J2, A. baumannii J2, +[…] PB, 2nd experiment, read-out: MIC): ≤ 0.03 µg/mL
MIC ([4]; J2, read-out: MIC +[…] PB, A. baumannii J2, +[…] polymyxin B, 1st experiment): ≤ 0.03 µg/mL
MBC ([5]; J2, A. baumannii J2, +[…] PB, 2nd experiment, read-out: MBC): ≤ 0.03 µg/mL
MBC ([5]; J2, read-out: MBC +[…] PB, A. baumannii J2, +[…] polymyxin B, 1st experiment): ≤ 0.03 µg/mL
MIC without PB/MIC + PB ([6]; Acinetobacter spp. H064200250 (OXA51), +[…] PB, 2nd experiment): ≥512
MIC without PB/MIC + PB ([6]; Acinetobacter spp. H064200250, ratio, PB […], 1st experiment): 32
MIC ([6]; Acinetobacter spp. H064200250 (OXA51), +[…] PB, 2nd experiment, read-out: MIC): ≤ 0.03 µg/mL
MIC ([6]; read-out: MIC +[…] PB, Acinetobacter spp. H064200250, +[…] polymyxin B, 1st experiment): 0.25 µg/mL (≈ 0.709 µM)
MBC ([7]; Acinetobacter spp. H064200250 (OXA51), +[…] PB, 2nd experiment, read-out: MBC): ≤ 0.03 µg/mL
MBC ([7]; read-out: MBC +[…] PB, Acinetobacter spp. H064200250, +[…] polymyxin B, 1st experiment): 0.25 µg/mL (≈ 0.709 µM)
MIC without PB/MIC + PB ([8]; A. baumannii A329): 8
MIC ([8]; Acinetobacter baumannii, A329, A. baumannii A329, read-out: MIC): 2 µg/mL (≈ 5.68 µM)
MBC [9]: 2 µg/mL (≈ 5.68 µM)
MIC without PB/MIC + PB ([10]; +0.06 μg/ml PB, 2nd experiment): ≥64
MIC without PB/MIC + PB [10, 25]: ≥64
MIC ([10]; A387, A. baumannii A387, +0.06 μg/ml PB, 2nd experiment, read-out: MIC): ≤ 0.03 µg/mL
MIC ([10]; A387, read-out: MIC +0.06 μg/ml PB, A. baumannii A387, +0.06 μg/ml polymyxin B, 1st experiment): ≤ 0.03 µg/mL
MBC ([11]; A387, A. baumannii A387, +0.06 μg/ml PB, 2nd experiment, read-out: MBC): ≤ 0.03 µg/mL
MBC ([11]; A387, read-out: MBC +0.06 μg/ml PB, A. baumannii A387, +0.06 μg/ml polymyxin B, 1st experiment): ≤ 0.03 µg/mL
MBC ([12]; A. baumannii A14, +0.06 μg/ml PB): 2 µg/mL (≈ 5.68 µM)
MBC ([12]; Acinetobacter baumannii, A14, A. baumannii A14, without PB, read-out: MBC): 16 µg/mL (≈ 45.4 µM)
MBC [13]: 0.125 µg/mL (≈ 0.355 µM)
MBC [14]: 0.06 µg/mL (≈ 0.17 µM)
MBC ([15]; NCTC13301, A. baumannii NCTC 13301, +[…] PB, preliminary MBC, 2nd experiment, read-out: MBC): ≤ 0.03 µg/mL
MBC ([15]; NCTC13301, read-out: MBC +[…] PB): 0.06 µg/mL (≈ 0.17 µM)
MIC +0.06 μg/ml PB ([16]; A baumannii A 401, +0.06 μg/ml polymyxin B, 1st experiment): 0.5 µg/mL
MIC without PB/MIC + PB ([16]; A baumannii A 401, ratio, PB 0.06 μg/ml, 1st experiment): 8
MIC ([16]; Acinetobacter baumannii, A401, A baumannii A 401, +0.06 μg/ml PB, 2nd experiment, read-out: MIC): 1 µg/mL (≈ 2.84 µM)
MBC ([17]; A401, A baumannii A 401, +0.06 μg/ml PB, 2nd experiment, read-out: MBC): 0.5 µg/mL (≈ 1.42 µM)
MBC ([17]; A401, read-out: MBC +0.06 μg/ml PB, A baumannii A 401, +0.06 μg/ml polymyxin B, 1st experiment): 0.5 µg/mL
MIC without PB/MIC + PB ([18]; A. baumannii A473): 64
MIC ([18]; Acinetobacter baumannii, A473, A. baumannii A473, read-out: MIC): 0.06 µg/mL (≈ 0.17 µM)
MIC without PB/MIC + PB ([19]; +[…] PB, 2nd experiment): ≥256
MIC without PB/MIC + PB ([19]; ratio, PB […], 1st experiment): ≥256
MIC ([19]; A489, A. baumannii A489, +[…] PB, 2nd experiment, read-out: MIC): ≤ 0.03 µg/mL
MIC ([19]; A489, read-out: MIC +[…] PB, A. baumannii A489, +[…] polymyxin B, 1st experiment): ≤ 0.03 µg/mL
MBC ([20]; A489, A. baumannii A489, +[…] PB, 2nd experiment, read-out: MBC): ≤ 0.03 µg/mL
MBC ([20]; A489, read-out: MBC +[…] PB, A. baumannii A489, +[…] polymyxin B, 1st experiment): ≤ 0.03 µg/mL
MIC without PB/MIC + PB ([21]; A. baumannii NCTC 13301, ratio, PB […], 1st experiment): 256
MIC ([21]; Acinetobacter baumannii, NCTC13301, read-out: MIC +[…] PB): 0.06 µg/mL (≈ 0.17 µM)
MIC without PB/MIC + PB ([22]; A. baumannii NCTC 13301): ≥512
MIC ([22]; Acinetobacter baumannii, NCTC13301, A. baumannii NCTC 13301, read-out: MIC): ≤ 0.03 µg/mL
MIC +0.06 μg/ml PB ([23]; +0.06 μg/ml polymyxin B): 1 µg/mL
MIC without PB/MIC + PB ([23]; ratio, PB 0.06 μg/ml): 32
MBC ([24]; A14, read-out: MBC +0.06 μg/ml PB): 1 µg/mL (≈ 2.84 µM)
MBC ([24]; A. baumannii A14, without polymyxin B, preliminary MBC, 1st experiment, read-out: MBC without PB): 16 µg/mL (≈ 45.4 µM)
